Source: patent US7977328B2, “Heteroaryl benzamide derivatives for use as GLK activators in the treatment of diabetes” (AstraZeneca AB, priority 2005, dated 2011)

Legend:
Zucker obese fa/fa rats = experiment: Oral Glucose Tolerance Test (OGTT); format: in vivo, rat; settings: 10 mg/kg, given orally 120 minutes before glucose 2 g/kg; Zucker obese fa/fa rats on high fat diet
Description: Oral glucose tolerance tests were done on conscious Zucker obese fa/fa rats (age 12-13 weeks or older) fed a high fat diet (45% kcal fat) for at least two weeks prior to experimentation. The animals were fasted for 2 hours before use for experiments. A test compound or a vehicle was given orally 120 minutes before oral administration of a glucose solution at a dose of 2 g/kg body weight. Blood glucose levels were measured using a Accucheck glucometer from tail bled samples taken at different time points before and after administration of glucose (time course of […]). A time curve of the blood glucose levels was generated and the area-under-the-curve (AUC) for 120 minutes was calculated (the time of glucose administration being time zero). Percent reduction in glucose excursion was determined using the AUC in the vehicle-control group as zero percent reduction.

[1] = molecular target: T1, recombinant human pancreatic GLK (Homo sapiens, UniProt P35557); experiment: biochemical
T1 sequence (P35557 1-465): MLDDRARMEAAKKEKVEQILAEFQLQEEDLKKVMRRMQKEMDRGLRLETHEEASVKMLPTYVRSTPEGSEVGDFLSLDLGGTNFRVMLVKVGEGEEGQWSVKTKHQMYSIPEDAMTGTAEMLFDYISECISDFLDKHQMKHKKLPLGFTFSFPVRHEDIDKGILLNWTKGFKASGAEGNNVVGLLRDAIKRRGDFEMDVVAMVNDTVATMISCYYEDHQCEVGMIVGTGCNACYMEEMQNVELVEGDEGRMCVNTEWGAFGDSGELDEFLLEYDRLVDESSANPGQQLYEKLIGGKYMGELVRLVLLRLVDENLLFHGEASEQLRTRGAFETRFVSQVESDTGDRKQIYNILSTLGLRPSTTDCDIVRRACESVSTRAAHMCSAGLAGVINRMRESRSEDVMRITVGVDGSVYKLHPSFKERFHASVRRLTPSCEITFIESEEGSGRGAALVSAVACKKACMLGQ

Row | melting point | SMILES | OGTT activity (percent reduction in glucose excursion, AUC) (Zucker obese fa/fa rats) | EC50 [1]
1 | 100.6 °C | Cc1cnc(NC(=O)c2cc(Oc3cnc(C(=O)N4CCC4)cn3)cc(O[C@@H](C)CO)c2)cn1 [Example 59, 3-{[5-(Azetidin-1-ylcarbonyl)pyrazin-2-yl]oxy}-5-{[(1S)-2-hydroxy-1-methylethyl]oxy}-N-(5-methylpyrazin-2-yl)benzamide] | – | –
2 | 125.7 °C | Cc1cnc(NC(=O)c2cc(Oc3ccc(C(=O)N4CCC4)nc3)cc(OC(C)C)c2)cn1 [Example 37, 3-{[6-(Azetidin-1-ylcarbonyl)pyridin-3-yl]oxy}-5-[(1-methylethyl)oxy]-N-(5-methylpyrazin-2-yl)benzamide] | – | –

Row | SMILES | melting point | OGTT activity (percent reduction in glucose excursion, AUC) (Zucker obese fa/fa rats) | EC50 [1]
3 | COC[C@H](C)Oc1cc(Oc2ccc(C(=O)N3CCC3)nc2)cc(C(=O)Nc2ccn(C)n2)c1 [Example 3, 3-{[6-(Azetidin-1-ylcarbonyl)pyridin-3-yl]oxy}-5-{[(1S)-1-methyl-2-(methyloxy)ethyl]oxy}-N-(1-methyl-1H-pyrazol-3-yl)benzamide] | 132.7 °C | 54% | 31 nM
